Data from patent US4388320A, “3-Aminopropoxyaryl derivative in the treatment of tremor” (Sandoz Ltd., priority 1981, dated 1983).
Entries after “also recorded” stand apart in the source; their conditions may differ.

Tests used:
[1] = known use; cited from earlier work
[2] = first clinical study, 6 patients with constant essential (familiary) tremor, 4 weeks (Table 1); type: in vivo
Method: In one clinical study 6 patients with constant essential (familiary) tremor were given for 4 weeks once-a-day in the morning a capsule containing 1 to 8 mg of the compound of formula I in hydrogen malonate form. The dosage was increased gradually over the first two weeks of the study.

[3] = further, similar clinical study, 4 patients with essential (familiary) tremor (Table 2); type: in vivo; details: 1 to 12 mg per day
Method: The result of a further, similar study with 4 patients with essential (familiary) tremor treated for 4 weeks with 1 to 12 mg per day of the compound of formula I in hydrogen malonate form is indicated in table 2: […]

[4] = another clinical study, 6 patients with essential (familiary) tremor (Table 3); type: in vivo; details: 4 to 12 mg per day
acute toxicity, mouse = details: in vivo, hydrogen malonate form
Excerpt: (§1) The tolerability of the compound was also studied using standard tests. For example, the acute toxicity of the compound of formula I in hydrogen malonate form is as follows: […]

acute toxicity, rat = details: in vivo, hydrogen malonate form
Excerpt: as §1

acute toxicity, rabbit = details: in vivo, hydrogen malonate form
Excerpt: as §1

[5] = tolerability and comparison with other agents in anti-tremor use; type: in vivo, patients
[6] = clinical observations, treatment of tremor (overall); type: in vivo, patients
adrenergic β-receptors = details: U.K. Patent Specification No. 1,575,510; cited from earlier work
[7] = U.K. Patent Specification No. 1,575,510; cited from earlier work
[8] = system: lipolysis and glycogenolysis induced by isoproterenol; details: U.K. Patent Specification No. 1,575,510; cited from earlier work
[9] = after 2 weeks, total 6 patients, capsule once-a-day, 1 to 8 mg, hydrogen malonate form
[10] = after 4 weeks, total 6 patients, capsule once-a-day, 1 to 8 mg, hydrogen malonate form
[11] = 4 patients, 4 weeks, hydrogen malonate form
[12] = 6 patients, 4 weeks, hydrogen malonate form

SMILES: C=CCc1ccccc1OCC(O)CNC(C)C (stereo not shown) [alprenolol]
- activity against tremor [1]: inactive

SMILES: Cc1cc2c(OCC(CNC(C)(C)C)OC(=O)c3ccccc3)cccc2[nH]1 (stereo not shown) [compound of formula I, 4(2-benzoyloxy-3-tert-butylaminopropoxy)-2-methylindole]
- improvement in tremor, benefit (in words) ([2]; 6 patients, 4 weeks, 1 to 8 mg once-a-day): all patients gained benefit; also recorded: the degree of improvement was either marked or moderate
- Number of patients with marked (Ma) improvement after 2 weeks [2, 9]: 2 patients
- Number of patients with moderate (Mo) improvement after 2 weeks [2, 9]: 4 patients
- Number of patients with marked (Ma) improvement after 4 weeks [2, 10]: 3 patients
- Number of patients with moderate (Mo) improvement after 4 weeks [2, 10]: 3 patients
- hypotension and bradycardia ([2]; during treatment): No hypotension and no bradycardia
- side effects ([2]; during treatment): remarkably free of side effects
- duration of beneficial effect ([2]; once-a-day in the morning): the beneficial effect lasted the whole day
- hypotension and bradycardia [3]: no hypotension and no bradycardia
- side effects [3]: exceptionally few side effects
- time to first observed improvement [3]: already after one week of treatment
- time to maximum improvement [3]: 2 weeks
- improvement (in words) ([3]; 4 patients, 4 weeks): marked improvement was observed in all 4 patients
- Number of patients showing good improvement [3, 11]: 2 patients
- Number of patients showing very good improvement [3, 11]: 2 patients
- hypotension and bradycardia [4]: no hypotension and no bradycardia
- improvement (in words) ([4]; 6 patients, 4 weeks): These results were confirmed; also recorded: very good or good improvement was observed in all patients
- Number of patients showing good improvement [4, 12]: 3 patients
- Number of patients showing very good improvement [4, 12]: 3 patients
- LD50 (acute toxicity, mouse; iv, read-out: LD50 i.v.): 11 mg/kg
- LD50 (acute toxicity, mouse; po, read-out: LD50 p.o.): 242 mg/kg
- LD50 (acute toxicity, rat; iv, read-out: LD50 i.v.): 9 mg/kg
- LD50 (acute toxicity, rat; po, read-out: LD50 p.o.): 1010 mg/kg
- LD50 (acute toxicity, rabbit; iv, read-out: LD50 i.v.): 7 mg/kg
- LD50 (acute toxicity, rabbit; po, read-out: LD50 p.o.): 334 mg/kg
- hypotension or bradycardia ([5]; in vivo): not induce hypotension or bradycardia
- influence on P-Q wave in the electrocardiogramm ([5]; in vivo): does not significantly influence the P-Q wave
- overall safety ([5]; in vivo): exceptionally safe
- effect on blood pressure and heart rate ([5]; patients with underlying hypertension or tachycardia): normalization of blood pressure and heart rate
- onset of anti-tremor activity compared with anticholinergics ([5]; versus anticholinergics): more rapid onset of activity
- tolerability compared with anticholinergics ([5]; versus anticholinergics): better tolerated than anticholinergics
- tolerability compared with other β-adrenoceptor blocking agents ([5]; versus e.g. propranolol): better tolerated than other β-adrenoceptor blocking agents, e.g. propranolol
- usefulness / improvement in treatment of tremor (in words) [6]: impressive improvement; also recorded: useful in the treatment of tremor, especially of essential (familiary) tremor
- blocking effect on the adrenergic β-receptors (adrenergic β-receptors): blocking effect on the adrenergic β-receptors
- antiarrhythmic effect [7]: antiarrhythmic effect
- inhibition of lipolysis and glycogenolysis [8]: inhibit lipolysis and glycogenolysis induced by isoproterenol

SMILES: C=CCOc1ccccc1OCC(O)CNC(C)C (stereo not shown) [oxprenolol]
- activity against tremor [1]: inactive

SMILES: CC(C)NCC(O)COc1cccc2ccccc12 (stereo not shown) [propranolol]
- activity against tremor [1]: conflicting results

SMILES: CC(C)(C)NC[C@H](O)COc1nsnc1N1CCOCC1 [timolol]
- activity against tremor [1]: inactive
